Laboratory results as given in ChEMBL document CHEMBL1201862, “PubChem BioAssay data set” (2004).
One block for each compound: values may come before it. Activity calls are given as the source filed them.

Assays:
[1] = inhibitors of firefly luciferase expression or activity, dose response, H4 neuroglioma cells, luminescence (AID 1990); format: functional, cell-based
[2] = biological target: Voltage-dependent T-type calcium channel subunit alpha-1H (Homo sapiens, UniProt O95180); format: functional;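 further: channel activity triggered by adding a high calcium stimulation buffer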
Voltage-dependent T-type calcium channel subunit alpha-1H, sequence (O95180 whole entry): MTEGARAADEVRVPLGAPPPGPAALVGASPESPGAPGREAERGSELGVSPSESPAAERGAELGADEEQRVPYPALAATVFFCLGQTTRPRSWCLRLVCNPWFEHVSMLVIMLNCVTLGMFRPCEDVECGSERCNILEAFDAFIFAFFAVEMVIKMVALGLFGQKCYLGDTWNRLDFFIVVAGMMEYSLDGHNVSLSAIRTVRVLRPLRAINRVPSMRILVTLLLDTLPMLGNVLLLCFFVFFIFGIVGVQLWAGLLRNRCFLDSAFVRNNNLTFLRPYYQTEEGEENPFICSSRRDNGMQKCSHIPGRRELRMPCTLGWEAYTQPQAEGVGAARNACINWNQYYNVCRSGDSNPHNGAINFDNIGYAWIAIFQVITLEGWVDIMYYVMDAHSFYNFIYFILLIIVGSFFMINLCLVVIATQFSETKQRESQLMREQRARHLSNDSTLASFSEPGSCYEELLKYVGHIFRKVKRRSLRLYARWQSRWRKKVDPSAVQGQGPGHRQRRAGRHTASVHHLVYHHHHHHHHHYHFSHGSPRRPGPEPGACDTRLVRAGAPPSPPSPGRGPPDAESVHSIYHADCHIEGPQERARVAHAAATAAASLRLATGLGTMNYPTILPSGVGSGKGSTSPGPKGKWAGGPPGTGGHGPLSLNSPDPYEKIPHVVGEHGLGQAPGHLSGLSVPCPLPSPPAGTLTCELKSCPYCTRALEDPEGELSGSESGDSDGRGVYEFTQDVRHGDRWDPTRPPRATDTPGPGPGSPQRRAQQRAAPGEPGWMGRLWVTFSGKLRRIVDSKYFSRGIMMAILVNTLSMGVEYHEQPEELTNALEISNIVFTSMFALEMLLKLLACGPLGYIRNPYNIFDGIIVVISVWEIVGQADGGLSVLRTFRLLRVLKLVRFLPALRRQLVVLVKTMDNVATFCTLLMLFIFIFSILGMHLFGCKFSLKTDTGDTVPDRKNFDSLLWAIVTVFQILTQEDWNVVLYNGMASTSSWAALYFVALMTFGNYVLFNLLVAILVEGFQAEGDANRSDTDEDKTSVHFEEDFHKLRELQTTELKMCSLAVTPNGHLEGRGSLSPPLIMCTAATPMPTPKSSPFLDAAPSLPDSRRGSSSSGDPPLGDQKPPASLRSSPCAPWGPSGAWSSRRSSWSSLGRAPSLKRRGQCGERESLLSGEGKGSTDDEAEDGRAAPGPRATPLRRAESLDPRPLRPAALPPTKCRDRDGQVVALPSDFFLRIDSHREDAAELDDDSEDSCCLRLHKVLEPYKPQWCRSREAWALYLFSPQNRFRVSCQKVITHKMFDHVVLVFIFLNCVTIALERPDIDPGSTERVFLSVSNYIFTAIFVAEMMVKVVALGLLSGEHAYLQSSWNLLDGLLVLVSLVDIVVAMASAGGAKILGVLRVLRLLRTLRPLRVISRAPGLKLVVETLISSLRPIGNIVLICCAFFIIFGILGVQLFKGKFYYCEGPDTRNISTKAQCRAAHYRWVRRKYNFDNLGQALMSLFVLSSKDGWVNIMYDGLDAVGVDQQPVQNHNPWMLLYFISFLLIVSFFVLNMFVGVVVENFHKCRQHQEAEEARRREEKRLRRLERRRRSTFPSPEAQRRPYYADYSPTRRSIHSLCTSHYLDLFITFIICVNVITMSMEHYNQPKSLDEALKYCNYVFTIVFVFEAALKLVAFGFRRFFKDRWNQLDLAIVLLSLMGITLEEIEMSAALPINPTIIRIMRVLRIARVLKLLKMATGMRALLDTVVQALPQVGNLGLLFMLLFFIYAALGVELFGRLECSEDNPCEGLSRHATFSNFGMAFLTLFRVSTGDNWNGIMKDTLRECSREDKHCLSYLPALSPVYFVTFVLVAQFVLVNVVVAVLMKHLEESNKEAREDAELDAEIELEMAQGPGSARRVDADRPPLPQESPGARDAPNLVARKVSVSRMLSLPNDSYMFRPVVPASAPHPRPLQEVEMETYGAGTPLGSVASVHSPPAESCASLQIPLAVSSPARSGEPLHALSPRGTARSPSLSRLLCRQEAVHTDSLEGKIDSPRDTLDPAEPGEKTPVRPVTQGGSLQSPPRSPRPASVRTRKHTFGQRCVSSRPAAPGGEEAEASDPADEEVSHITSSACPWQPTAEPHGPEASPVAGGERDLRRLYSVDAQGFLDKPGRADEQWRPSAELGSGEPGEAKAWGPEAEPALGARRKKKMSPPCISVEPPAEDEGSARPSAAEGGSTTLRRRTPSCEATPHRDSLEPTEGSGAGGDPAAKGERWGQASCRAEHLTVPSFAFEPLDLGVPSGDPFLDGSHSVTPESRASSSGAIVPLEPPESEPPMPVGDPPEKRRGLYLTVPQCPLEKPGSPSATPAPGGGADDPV

[3] = inhibitors of SNCA 5'UTR-driven reporter translation, confirmation, H4 neuroglioma cells, luminescence (AID 1988); format: functional, cell-based
[4] = biological target: Dual specificity protein phosphatase 3 (Homo sapiens, UniProt P51452); experiment: VHR1 inhibitor Ki determination, SAR follow-up, biochemical, colorimetric (AID 2004)
Dual specificity protein phosphatase 3, sequence (P51452 whole entry): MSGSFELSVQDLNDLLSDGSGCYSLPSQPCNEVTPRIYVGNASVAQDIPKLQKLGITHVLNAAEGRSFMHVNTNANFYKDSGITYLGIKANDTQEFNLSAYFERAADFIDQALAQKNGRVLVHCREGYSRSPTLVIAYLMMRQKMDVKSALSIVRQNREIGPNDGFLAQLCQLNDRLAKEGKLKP

[5] = biological target: Melanin-concentrating hormone receptor 1 (Homo sapiens, UniProt Q99705); experiment: Late-stage fluorescence-based counterscreen for antagonists of the G-protein coupled receptor 7 (GPR7): cell-based dose response assay to identify antagonists of the melanin-concentrating hormone receptor 1 (MCHR1). [Related pubchem assays (depositor defined):AID1861, AID1880, AID1952, AID2148, AID2251, AID2257, AID485339]; format: functional;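 further: stimulated with 30 nM MCH peptide agonist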
Melanin-concentrating hormone receptor 1, sequence (Q99705 whole entry): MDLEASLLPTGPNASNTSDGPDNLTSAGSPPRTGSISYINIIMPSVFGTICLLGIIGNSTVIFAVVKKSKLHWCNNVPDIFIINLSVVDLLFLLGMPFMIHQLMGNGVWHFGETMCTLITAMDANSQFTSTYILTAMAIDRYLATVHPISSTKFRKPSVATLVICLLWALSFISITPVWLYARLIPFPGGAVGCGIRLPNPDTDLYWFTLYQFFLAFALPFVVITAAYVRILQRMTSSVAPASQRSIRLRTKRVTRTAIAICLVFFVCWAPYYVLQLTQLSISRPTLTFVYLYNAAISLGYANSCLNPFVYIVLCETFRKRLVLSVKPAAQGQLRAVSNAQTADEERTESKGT

[6] = biological target: T1, Neuropeptides B/W receptor type 1 (Homo sapiens, UniProt P48145); experiment: GPR7 antagonist potency, late-stage follow-up, cell-based, fluorescence, dose response (AID 463251); format: functional
T1 sequence (P48145 whole entry): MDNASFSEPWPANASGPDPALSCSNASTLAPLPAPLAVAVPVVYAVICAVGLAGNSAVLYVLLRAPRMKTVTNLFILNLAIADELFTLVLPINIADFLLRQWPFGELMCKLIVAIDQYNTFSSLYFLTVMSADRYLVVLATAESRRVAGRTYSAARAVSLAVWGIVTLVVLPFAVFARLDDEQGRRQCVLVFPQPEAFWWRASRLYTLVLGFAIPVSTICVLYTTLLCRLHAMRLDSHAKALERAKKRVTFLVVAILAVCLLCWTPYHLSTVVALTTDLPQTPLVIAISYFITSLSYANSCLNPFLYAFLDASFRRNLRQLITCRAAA

[7] = biological target: Kappa-type opioid receptor (Homo sapiens, UniProt P41145); experiment: SAR analysis of small molecule agonists of the kappa opioid receptor via a luminescent beta-arrestin assay - Set 2. [Related pubchem assays (depositor defined):AID1777, AID1785, AID1786, AID1966, AID2133, AID2136, AID2284, AID449737]; format: functional
Kappa-type opioid receptor, sequence (P41145 whole entry): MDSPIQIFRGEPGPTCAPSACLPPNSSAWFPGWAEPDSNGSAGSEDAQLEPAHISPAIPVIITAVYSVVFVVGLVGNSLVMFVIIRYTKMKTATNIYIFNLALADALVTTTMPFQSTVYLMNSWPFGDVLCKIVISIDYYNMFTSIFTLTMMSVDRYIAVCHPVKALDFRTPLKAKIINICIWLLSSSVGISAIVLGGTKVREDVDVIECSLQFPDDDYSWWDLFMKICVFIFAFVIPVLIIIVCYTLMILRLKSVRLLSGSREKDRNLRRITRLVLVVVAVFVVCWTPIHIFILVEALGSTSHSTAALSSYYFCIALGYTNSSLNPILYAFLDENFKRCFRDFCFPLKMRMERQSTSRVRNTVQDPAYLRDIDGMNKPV

[8] = system: Trypanosoma cruzi; experiment: growth inhibition of intracellular Trypanosoma cruzi, dose response, cell-based, plate reader, dry powder, set 3 (AID 493197); format: functional
[9] = biological target: Collagenase 3 (Homo sapiens, UniProt P45452); experiment: MMP13 inhibition and MMP selectivity, late-stage follow-up, selectivity assay for MMP13 inhibitor project, biochemical, probe development, late stage results, panel member MMP-13 [IC50 Assay] (AID 2067)
[10] = biological target: Neutrophil collagenase (Homo sapiens, UniProt P22894); experiment: MMP13 inhibition and MMP selectivity, late-stage follow-up, selectivity assay for MMP13 inhibitor project, biochemical, probe development, late stage results, panel member MMP-8 [IC50 Assay] (AID 2067)
Neutrophil collagenase, sequence (P22894 whole entry): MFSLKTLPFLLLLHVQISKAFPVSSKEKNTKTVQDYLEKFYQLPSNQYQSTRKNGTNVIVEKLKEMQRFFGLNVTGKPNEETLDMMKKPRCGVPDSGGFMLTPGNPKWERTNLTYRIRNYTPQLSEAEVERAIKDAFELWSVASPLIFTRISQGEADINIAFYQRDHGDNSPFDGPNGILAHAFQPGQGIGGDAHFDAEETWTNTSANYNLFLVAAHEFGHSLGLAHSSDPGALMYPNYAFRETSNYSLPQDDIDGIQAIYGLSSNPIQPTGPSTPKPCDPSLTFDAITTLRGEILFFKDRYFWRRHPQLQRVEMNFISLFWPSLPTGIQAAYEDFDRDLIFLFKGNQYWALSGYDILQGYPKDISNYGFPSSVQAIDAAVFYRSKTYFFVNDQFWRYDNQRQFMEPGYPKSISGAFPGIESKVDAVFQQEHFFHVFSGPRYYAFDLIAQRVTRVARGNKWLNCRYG

[11] = biological target: Cyclin-dependent kinase 5/CDK5 activator 1 (Homo sapiens, UniProt Q00535); experiment: CDK5/p35 kinase inhibitors, dose response, biochemical, cherry-picked samples, set 2 (AID 504545)
Cyclin-dependent kinase 5/CDK5 activator 1, sequence (Q00535 whole entry): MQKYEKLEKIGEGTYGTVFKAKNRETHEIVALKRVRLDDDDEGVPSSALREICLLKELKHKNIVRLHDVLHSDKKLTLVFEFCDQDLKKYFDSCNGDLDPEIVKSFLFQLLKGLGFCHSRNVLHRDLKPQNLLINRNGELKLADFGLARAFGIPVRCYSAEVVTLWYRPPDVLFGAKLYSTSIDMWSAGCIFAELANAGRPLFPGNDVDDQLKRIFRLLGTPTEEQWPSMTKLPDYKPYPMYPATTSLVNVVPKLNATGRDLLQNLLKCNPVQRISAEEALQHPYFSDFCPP
Cyclin-dependent kinase 5/CDK5 activator 1, sequence (Q15078 whole entry, further chain): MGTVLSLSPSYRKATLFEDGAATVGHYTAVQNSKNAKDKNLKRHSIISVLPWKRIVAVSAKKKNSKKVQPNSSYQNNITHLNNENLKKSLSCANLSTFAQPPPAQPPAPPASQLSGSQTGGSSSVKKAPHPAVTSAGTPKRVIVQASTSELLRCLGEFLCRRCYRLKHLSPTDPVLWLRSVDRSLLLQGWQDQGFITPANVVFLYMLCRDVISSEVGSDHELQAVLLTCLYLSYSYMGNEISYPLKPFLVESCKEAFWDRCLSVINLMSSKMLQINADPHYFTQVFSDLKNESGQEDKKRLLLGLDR

Compound: Cc1ccc(Cn2nc(C)c(NC(=O)c3cc(-c4ccc5c(c4)OCO5)on3)c2C)cc1
EC50 [1]: > 120 µM (not active)
EC50 [2]: 30 µM (active)
EC50 [3]: 14 µM (active)

Compound: O=C(O)C(Cc1ccccc1)NC(=S)Nc1ccccc1 (stereo unspecified)
Ki [4]: 28.8 µM (inactive)

Compound: CCNC(=O)C1(C)CCCN(Cc2cccc(Oc3ccccc3)c2)C1 (stereo unspecified)
AC50 [8]: 45.6 µM (active)

Second part, the compound after the results:

IC50 [5]: > 20 µM (inactive)
IC50 [6]: > 20 µM (inactive)
Compound: Cc1ccc(-n2ccc(Cl)c(Cl)c2=O)cc1

EC50 [7]: > 20 µM (inactive)
Compound: COC(=O)CN(Cc1cccs1)C(=O)c1cccnc1

IC50 [9]: > 39.8 µM (inactive)
IC50 [10]: > 39.8 µM (active)
Compound: C#CCSc1nc2c(c(=O)[nH]1)CCC2

AC50 [11]: 7.32 µM (active)
Compound: CCc1c(O)nc(N)nc1Nc1ccccc1Cl
